From paper PMC2000878, “Module structure of interphotoreceptor retinoid-binding protein (IRBP) may provide bases for its complex role in the visual cycle – structure/function study of Xenopus IRBP” (BMC Biochemistry, 2007)
Like-named read-outs stand apart in the source and are kept apart here.

Key:
Type in all cases: binding
[1] = target: T1, full-length Xenopus IRBP (Xenopus laevis, UniProt Q7SZI7); assay: Fluorometric titration (ligand fluorescence enhancement, protein quenching, energy transfer)
T1 construct: We expressed the full-length IRBP as well as its individual modules as thioredoxin-fusion proteins using pTrxFus and pThioHis vectors; made in house; host or cells: E. coli Top10 (pThioHis)
T1 sequence (Q7SZI7 23-1219): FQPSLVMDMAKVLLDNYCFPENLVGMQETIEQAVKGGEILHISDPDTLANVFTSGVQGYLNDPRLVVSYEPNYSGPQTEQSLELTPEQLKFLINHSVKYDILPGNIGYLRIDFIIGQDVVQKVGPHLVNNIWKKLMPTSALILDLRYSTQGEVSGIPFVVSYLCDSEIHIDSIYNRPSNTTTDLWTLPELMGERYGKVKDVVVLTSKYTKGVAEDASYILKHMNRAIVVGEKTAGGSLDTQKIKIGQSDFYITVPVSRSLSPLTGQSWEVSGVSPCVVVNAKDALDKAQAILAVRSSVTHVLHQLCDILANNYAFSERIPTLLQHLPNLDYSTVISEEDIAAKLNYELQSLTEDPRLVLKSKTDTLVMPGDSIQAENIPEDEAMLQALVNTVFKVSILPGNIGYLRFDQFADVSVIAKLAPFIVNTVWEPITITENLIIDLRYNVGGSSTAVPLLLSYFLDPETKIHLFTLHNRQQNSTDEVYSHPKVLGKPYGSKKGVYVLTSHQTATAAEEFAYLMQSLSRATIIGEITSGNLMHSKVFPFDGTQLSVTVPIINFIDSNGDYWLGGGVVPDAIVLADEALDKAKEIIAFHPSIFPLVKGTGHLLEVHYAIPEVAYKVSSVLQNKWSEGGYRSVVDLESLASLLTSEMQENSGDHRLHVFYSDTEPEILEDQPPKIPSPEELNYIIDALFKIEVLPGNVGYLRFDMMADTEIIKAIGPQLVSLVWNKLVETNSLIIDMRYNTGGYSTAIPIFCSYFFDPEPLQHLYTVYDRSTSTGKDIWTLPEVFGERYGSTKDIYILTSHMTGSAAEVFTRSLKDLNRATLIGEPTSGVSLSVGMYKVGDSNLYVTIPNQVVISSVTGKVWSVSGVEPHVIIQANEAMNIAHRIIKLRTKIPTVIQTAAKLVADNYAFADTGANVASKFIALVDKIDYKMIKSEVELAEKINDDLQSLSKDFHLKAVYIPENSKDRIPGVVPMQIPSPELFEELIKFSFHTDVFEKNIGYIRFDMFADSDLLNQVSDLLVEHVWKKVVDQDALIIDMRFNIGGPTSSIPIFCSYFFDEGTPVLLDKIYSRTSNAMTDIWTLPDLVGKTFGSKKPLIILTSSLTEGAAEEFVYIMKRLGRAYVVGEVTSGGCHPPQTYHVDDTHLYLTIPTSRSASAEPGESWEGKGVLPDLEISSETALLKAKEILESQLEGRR
Excerpt: The binding parameters of retinoid-binding proteins including IRBP may be determined by fluorescence spectroscopy. The method utilizes changes in quantum yield occurring during ligand binding. Such changes are represented by enhancement of ligand fluorescence, quenching of intrinsic protein fluorescence, and transfer of energy from protein to bound ligand. Fluorescence enhancement occurs if the quantum yield of the ligand's fluorescence is higher in the hydrophobic environment of the ligand-binding domain compared to that outside of the domain.
[…] We previously derived an equation that is generally useful for describing such quantum yield changes that are consequent upon ligand binding. This equation has been previously applied to the analysis of binding by monitoring the enhancement of retinol fluorescence. In this case, […], the fluorescence enhancement (Fenh) depends on the total retinol concentration (Rt), the dissociation constant (Kd ^all-trans), the number of retinol-binding sites per protein molecule (N) and the total protein concentration (Pt).
(§1) Assuming that there is a single type of noninteracting site on the protein, (Fenh) is expected to be linearly related to the concentration of bound retinol molecules. Fenh is given by the relation
(§2) Fenh=C1+C2[Rtall−trans−(Rtall−trans+NPt+Kdall−trans)^2−4NPtRtall−trans] MathType@MTEF@5@5@+=feaafiart1ev1aaatCvAUfKttLearuWrP9MDH5MBPbIqV92AaeXatLxBI9gBaebbnrfifHhDYfgasaacH8akY=wiFfYdH8Gipec8Eeeu0xXdbba9frFj0=OqFfea0dXdd9vqai=hGuQ8kuc9pgc9s8qqaq=dirpe0xb9q8qiLsFr0=vr0=vr0dc8meaabaqaciaacaGaaeqabaqabeGadaaakeaacqWGgbGrdaWgaaWcbaGaemyzauMaemOBa4MaemiAaGgabeaakiabg2da9iabdoeadnaaBaaaleaacqaIXaqmaeqaaOGaey4kaSIaem4qam0aaSbaaSqaaiabikdaYaqabaGcdaWadaqaaiabdkfasnaaDaaaleaacqWG0baDaeaacqWGHbqycqWGSbaBcqWGSbaBcqGHsislcqWG0baDcqWGYbGCcqWGHbqycqWGUbGBcqWGZbWCaaGccqGHsisldaGcaaqaamaabmaabaGaemOuai1aa0baaSqaaiabdsha0bqaaiabdggaHjabdYgaSjabdYgaSjabgkHiTiabdsha0jabdkhaYjabdggaHjabd6gaUjabdohaZbaakiabgUcaRiabd6eaojabdcfaqnaaBaaaleaacqWG0baDaeqaaOGaey4kaSIaem4saS0aa0baaSqaaiabdsgaKbqaaiabdggaHjabdYgaSjabdYgaSjabgkHiTiabdsha0jabdkhaYjabdggaHjabd6gaUjabdohaZbaaaOGaayjkaiaawMcaamaaCaaaleqabaGaeGOmaidaaOGaeyOeI0IaeGinaqJaemOta4Kaemiuaa1aaSbaaSqaaiabdsha0bqabaGccqWGsbGudaqhaaWcbaGaemiDaqhabaGaemyyaeMaemiBaWMaemiBaWMaeyOeI0IaemiDaqNaemOCaiNaemyyaeMaemOBa4Maem4CamhaaaqabaaakiaawUfacaGLDbaaaaa@8490@
The equation was fit to the data by nonlinear least-squares analysis. […] For the quenching studies the inner filter effect was accounted for by graphical correction as previously described. Fluorescence measurements were made using an SLM 8000TM C photon counting spectrofluorometer corrected for wavelength dependence of source energy and detector response.

[2] = target: T2, Xenopus IRBP Module 3 (Xenopus laevis, UniProt Q7SZI7); assay: Fluorometric titration (enhancement, quenching)
T2 construct: cDNAs corresponding to the full-length IRBP, module 1, and module 2 were expressed in pThioHis; modules 3 and 4 were expressed in pTrxFus; made in house; host or cells: E. coli GI724 / GI698 (pTrxFus)
T2 sequence (Q7SZI7 616-922): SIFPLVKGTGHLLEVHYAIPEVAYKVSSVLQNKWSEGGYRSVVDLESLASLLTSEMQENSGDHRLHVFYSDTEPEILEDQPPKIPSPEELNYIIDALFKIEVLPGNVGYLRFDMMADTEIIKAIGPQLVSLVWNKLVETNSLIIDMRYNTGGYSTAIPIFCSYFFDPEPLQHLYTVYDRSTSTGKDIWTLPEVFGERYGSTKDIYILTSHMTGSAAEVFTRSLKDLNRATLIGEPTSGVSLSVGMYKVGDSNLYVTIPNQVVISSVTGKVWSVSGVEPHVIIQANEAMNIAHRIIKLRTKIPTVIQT
Excerpt: (§3) Enhancement of retinol fluorescence and quenching of the intrinsic protein fluorescence were used to monitor binding of all-trans retinol to the recombinant IRBPs. We previously derived an equation that is generally useful for describing such quantum yield changes that are consequent upon ligand binding. This equation has been previously applied to the analysis of binding by monitoring the enhancement of retinol fluorescence. In this case, where excitation is at 330 nm and emission is monitored at 480, the fluorescence enhancement (Fenh) depends on the total retinol concentration (Rt), the dissociation constant (Kd ^all-trans), the number of retinol-binding sites per protein molecule (N) and the total protein concentration (Pt).
as §1, §2
(§4) The equation was fit to the data by nonlinear least-squares analysis. To follow the quenching of the protein's intrinsic fluorescence the excitation and emission wavelengths were set to 280 nm and 340 nm, respectively, while the protein was titrated with all-trans retinol. For the quenching studies the inner filter effect was accounted for by graphical correction as previously described. Fluorescence measurements were made using an SLM 8000TM C photon counting spectrofluorometer corrected for wavelength dependence of source energy and detector response.

[3] = target: T3, Xenopus IRBP Module 4 (Xenopus laevis, UniProt Q7SZI7); assay: Fluorometric titration (enhancement, quenching)
T3 construct: cDNAs corresponding to the full-length IRBP, module 1, and module 2 were expressed in pThioHis; modules 3 and 4 were expressed in pTrxFus; made in house; host or cells: E. coli GI724 / GI698 (pTrxFus)
T3 sequence (Q7SZI7 923-1219): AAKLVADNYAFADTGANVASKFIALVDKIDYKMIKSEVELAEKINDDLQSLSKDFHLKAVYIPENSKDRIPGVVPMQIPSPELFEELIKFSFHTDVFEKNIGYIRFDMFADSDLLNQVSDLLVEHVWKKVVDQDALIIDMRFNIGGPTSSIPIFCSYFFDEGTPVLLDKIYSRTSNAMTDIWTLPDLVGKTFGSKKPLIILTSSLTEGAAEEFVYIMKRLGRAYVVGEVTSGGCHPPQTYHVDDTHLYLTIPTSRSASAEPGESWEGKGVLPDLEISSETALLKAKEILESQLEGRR
Excerpt: as §3, §1, §2, §4

[4] = target: X(1,2)IRBP (Xen IRBP modules 1&2) (Xenopus laevis, UniProt Q7SZI7); assay: Fluorometric titration, retinol fluorescence enhancement, double module; conditions: ex 330 nm, em 480 nm, protein 0.67 μM
Chain of X(1,2)IRBP (Xen IRBP modules 1&2) (Q7SZI7 23-617): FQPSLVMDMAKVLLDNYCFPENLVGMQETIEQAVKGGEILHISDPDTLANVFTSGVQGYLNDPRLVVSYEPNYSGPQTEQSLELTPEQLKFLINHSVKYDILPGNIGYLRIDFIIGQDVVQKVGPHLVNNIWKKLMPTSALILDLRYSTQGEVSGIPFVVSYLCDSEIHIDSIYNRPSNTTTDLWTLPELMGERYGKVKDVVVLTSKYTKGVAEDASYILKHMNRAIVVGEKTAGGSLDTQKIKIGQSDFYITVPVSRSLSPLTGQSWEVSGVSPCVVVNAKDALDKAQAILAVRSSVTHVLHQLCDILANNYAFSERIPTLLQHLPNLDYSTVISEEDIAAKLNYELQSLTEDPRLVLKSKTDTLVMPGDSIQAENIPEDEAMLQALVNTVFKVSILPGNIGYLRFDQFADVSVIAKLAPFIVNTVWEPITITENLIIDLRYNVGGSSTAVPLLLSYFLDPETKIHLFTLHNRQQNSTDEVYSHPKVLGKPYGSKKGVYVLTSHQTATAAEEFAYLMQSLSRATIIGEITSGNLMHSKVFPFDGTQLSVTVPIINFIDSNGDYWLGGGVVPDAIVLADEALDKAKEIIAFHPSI
Excerpt: (§5) Why do the number of sites from individual modules add up to more than that detected in the full-length IRBP? Here we asked whether the number of sites within individual modules could at least predict the number in recombinant proteins consisting of two modules. We had originally anticipated that the sum of sites from individual modules would give the number in such "module pairs". However, this turned out to be not always true. We expressed and purified module combinations 1&2 and 3&4, termed X(1,2)IRBP and X(3,4)IRBP respectively. Binding of all-trans retinol to these module pairs was characterized by fluorometric titrations monitoring retinol-fluorescence enhancement (Figure 10). For X(1,2)IRBP, N = 2.45 ± 0.11 (2.40 sites were predicted from the sum of individual modules 1 plus 2). In contrast, N for X(3,4)IRBP was 1.43 ± 0.21 sites (predicted, 3.83 sites). […] That is, some sites may not be solvent exposed in the intact IRBP as they are within individual modules. […] Therefore it is plausible that some binding sites that are solvent exposed in the individual module are buried in the intact […]. To address this question, ongoing studies in our laboratories are aimed at determining the X-ray crystal structure of IRBPs composed of multiple modules.
(§6) Figure 10 Retinol binding to Xenopus IRBPs consisting of two contiguous modules. Binding of double modules IRBPs with all-trans retinol as followed during titrations by monitoring the increase in retinol fluorescence (excitation, 330 nm; emission, 480 nm). The concentration of the IRBP double module was: modules 1&2, 0.67 μM; modules 3&4, 0.57 μM.
as §3
(§7) Assuming that there is a single type of noninteracting site on the protein, (Fenh) is expected to be linearly related to the concentration of bound retinol molecules. […]
(§8) The equation was fit to the data by nonlinear least-squares analysis. To follow the quenching of the protein's intrinsic fluorescence the excitation and emission wavelengths were set to 280 nm and 340 nm, respectively, while the protein was titrated with all-trans retinol. […]

[5] = target: X(3,4)IRBP (Xen IRBP modules 3&4) (Xenopus laevis, UniProt Q7SZI7); assay: as above; conditions: ex 330 nm, em 480 nm, protein 0.57 μM
Chain of X(3,4)IRBP (Xen IRBP modules 3&4) (Q7SZI7 618-1219): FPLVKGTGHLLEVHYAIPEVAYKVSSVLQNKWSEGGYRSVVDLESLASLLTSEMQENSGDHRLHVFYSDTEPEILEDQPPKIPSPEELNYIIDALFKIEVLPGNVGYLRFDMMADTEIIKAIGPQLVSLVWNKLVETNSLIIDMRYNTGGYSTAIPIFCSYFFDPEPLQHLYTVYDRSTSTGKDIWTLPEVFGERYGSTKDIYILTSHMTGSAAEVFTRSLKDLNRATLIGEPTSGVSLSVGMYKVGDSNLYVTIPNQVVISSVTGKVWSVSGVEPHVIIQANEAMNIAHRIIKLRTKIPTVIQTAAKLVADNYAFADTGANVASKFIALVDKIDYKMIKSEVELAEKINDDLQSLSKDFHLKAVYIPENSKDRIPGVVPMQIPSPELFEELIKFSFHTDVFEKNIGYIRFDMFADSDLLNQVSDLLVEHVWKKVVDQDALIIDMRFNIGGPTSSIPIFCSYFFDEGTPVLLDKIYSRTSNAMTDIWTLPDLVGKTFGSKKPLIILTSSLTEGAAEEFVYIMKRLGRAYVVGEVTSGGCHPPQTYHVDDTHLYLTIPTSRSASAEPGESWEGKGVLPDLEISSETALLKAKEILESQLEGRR
Excerpt: as §5, §6, §3, §7, §8

[6] = all-trans retinol fluorescence enhancement, ex 330 nm, em 480 nm
[7] = quenching by all-trans retinol, ex 280 nm, em 340 nm, read-out: Kd, Quenching

| Binding sites (N), Enhancement ([1]; all-trans retinol fluorescence enhancement, ex 330 nm, em 480 nm, IRBP 0.65 μM) | Kd ([1]; all-trans retinol fluorescence enhancement, ex 330 nm, em 480 nm, IRBP 0.65 μM, read-out: Kd, Enhancement) | Binding sites (N), energy transfer ([1]; all-trans retinol, energy transfer, ex 280 nm, em 480 nm) | Kd ([1]; all-trans retinol, energy transfer, ex 280 nm, em 480 nm, read-out: Kd, energy transfer) | Binding sites (N), Quenching ([1]; quenching of protein fluorescence by all-trans retinol, ex 280 nm, em 340 nm) | Kd ([1]; quenching of protein fluorescence by all-trans retinol, ex 280 nm, em 340 nm, read-out: Kd, Quenching) | Kd ([1]; summary statement of the abstract, read-out: Kd (summary)) | Binding sites (N), Enhancement [2, 6] | Kd ([2]; all-trans retinol fluorescence enhancement, ex 330 nm, em 480 nm, read-out: Kd, Enhancement) | Kd [2, 7] | Binding sites (N), Enhancement [3, 6] | Kd ([3]; all-trans retinol fluorescence enhancement, ex 330 nm, em 480 nm, absence of 11-cis retinaldehyde, read-out: Kd, Enhancement) | Kd [3, 7] | Binding sites (N) [4] | Kd [4] | Binding sites (N) [5] | Kd [5] | Binding sites (N), Quenching ([1]; quenching of protein fluorescence by 11-cis retinaldehyde, ex 280 nm, em 340 nm) | Kd ([1]; quenching of protein fluorescence by 11-cis retinaldehyde, ex 280 nm, em 340 nm, read-out: Kd 11-cis, Quenching) | Structure (SMILES) |
| --- | --- | --- | --- | --- | --- | --- | --- | --- | --- | --- | --- | --- | --- | --- | --- | --- | --- | --- | --- |
| 3.19 ± 0.10 | 300 ± 50 nM | 3.72 ± 0.20 | 290 ± 120 nM | 1.93 ± 0.41 | 660 ± 140 nM | 200 to 300 nM | 1.83 ± 0.42 | 1180 ± 410 nM | 310 ± 40 nM | 2.06 ± 0.53 | 1790 ± 540 nM | 640 ± 50 nM | 2.45 ± 0.11 | 49 ± 23 nM | 1.43 ± 0.21 | 190 ± 50 nM | – | – | CC1=C(/C=C/C(C)=C/C=C/C(C)=C/CO)C(C)(C)CCC1 [all-trans retinol] |
| – | – | – | – | – | – | – | – | – | – | – | – | – | – | – | – | – | 1.81 ± 0.15 | 280 ± 50 nM | CC1=C(/C=C/C(C)=C/C=C/C(C)=C/C=O)C(C)(C)CCC1 [11-cis retinal] |
